Measured values from ChEMBL document CHEMBL1158898, “New flavans, spirostanol sapogenins, and a pregnane genin from Tupistra chinensis and their cytotoxicity” (2003).

Tested on: NUGC
Assay: Cytotoxicity against human NUGC cells at 50 uM
Type: functional
`C=C1CC[C@@]2(OC1)O[C@H]1C[C@H]3[C@@H]4CC[C@]5(O)[C@@H](O)[C@@H](O)[C@@H](O)[C@@H](O)[C@]5(C)[C@H]4CC[C@]3(C)[C@H]1[C@@H]2C` showed an inhibition at 50 µM of 100%.
`C=CCc1ccc(O)c(O)c1` [HYDROXYCHAVICOL] gave an inhibition at 50 µM of 96%.
`C=C1CC[C@@]2(OC1)O[C@H]1C[C@H]3[C@@H]4CC[C@]5(O)[C@@H](O)[C@@H](O)C[C@@H](O)[C@]5(C)[C@H]4CC[C@]3(C)[C@H]1[C@@H]2C` [RANMOGENIN A] gave an inhibition at 50 µM of 80%.
`C=C1CC[C@@]2(OC1)O[C@H]1C[C@H]3[C@@H]4CC[C@]5(O)C[C@@H](OC(C)=O)[C@@H](OC(C)=O)[C@@H](OC(C)=O)[C@]5(C)[C@H]4CC[C@]3(C)[C@H]1[C@@H]2C` [TUPICHIGENIN AA] showed an inhibition at 50 µM of 50%.
In the case of `C=C1CC[C@@]2(OC1)O[C@H]1C[C@H]3[C@@H]4CC[C@]5(O)C[C@@H](O)[C@@H](OC(C)=O)[C@@H](OC(C)=O)[C@]5(C)[C@H]4CC[C@]3(C)[C@H]1[C@@H]2C` [TUPICHIGENIN AC], the inhibition at 50 µM is reported as 40%.
With `C=C1CC[C@@]2(OC1)O[C@H]1C[C@H]3[C@@H]4CC[C@]5(O)C[C@@H](O)[C@@H](O)[C@@H](O)[C@]5(C)[C@H]4CC[C@]3(C)[C@H]1[C@@H]2C` [TUPICHIGENIN A] the inhibition at 50 µM was 42%.
`COc1ccc2c(c1C)O[C@H](c1ccc(O)cc1)[C@H](O)C2` [TUPICHINOL A] showed an inhibition at 50 µM of 30%.
`CC(=O)C1=CC[C@H]2[C@@H]3CC=C4C[C@H](O)C[C@@H](O)[C@]4(C)[C@H]3CC[C@]12C` [TUPIPREGNENOLONE] gave an inhibition at 50 µM of 25%.

Tested on: not listed separately
Assay: Cytotoxicity against human HONE1 cells at 50 uM
Type: functional
For `C=C1CC[C@@]2(OC1)O[C@H]1C[C@H]3[C@@H]4CC[C@]5(O)[C@@H](O)[C@@H](O)[C@@H](O)[C@@H](O)[C@]5(C)[C@H]4CC[C@]3(C)[C@H]1[C@@H]2C`, the inhibition at 50 µM was 100%.
`C=C1CC[C@@]2(OC1)O[C@H]1C[C@H]3[C@@H]4CC=C5C[C@H](O)C[C@@H](O)[C@]5(C)[C@H]4CC[C@]3(C)[C@H]1[C@@H]2C` showed an inhibition at 50 µM of 45%.
In the case of `Oc1ccc([C@H]2CCc3ccc(O)cc3O2)cc1` [TUPICHINOL C], the inhibition at 50 µM is reported as 50%.
